Test results as given in publication PMC6971092, “Identification of emulsifier potato peptides by bioinformatics: application to omega-3 delivery emulsions and release from potato industry side streams” (Scientific Reports, 2020).
Residues, ends and D or L forms follow the SMILES beside them. No end group written: not given here.

How the values were obtained:
[1] = Solubility of peptides in sodium acetate-imidazole buffer; type: physicochemical; set-up: key: Soluble: totally soluble; Cloudy: cloudy: no totally soluble; conditions: 0.2 wt.% in 10 mM sodium acetate - 10 mM imidazole buffer (pH 7); shaken 2 h at 50 °C and overnight at room temperature; visual
Protocol: (§1) Emulsions were produced as reported in our previous work[31]. A total amount of 2 g of 5 wt.% fish oil-in-water emulsion stabilized with 0.2 wt.% potato peptides was produced. Peptides (0.2 wt.%) were dissolved in 10 mM sodium acetate – 10 mM imidazole buffer (pH 7). For that, the peptide solutions were shaken (100 rpm) for 2 h in water bath at 50 °C and overnight at room temperature to allow complete solubilization and rehydration of the peptides (when possible). Primary homogenization was done by adding the fish oil to the peptide-buffer solution and mixing at 18,000 rpm for 30 s by using a POLYTRON PT1200E (Kinematic Inc., New York, USA). Secondary homogenization was done using a MICROSON XL2000 sonicator equipped with a P1 probe (Misonix, Inc., New York, USA). Emulsions were homogenized at an amplitude of 75% (maximum amplitude of 180 μm), running 2 passes of 30 s with a break of 1 min between passes. During sonication the emulsions were surrounded by iced water to minimize the increase in temperature. […] All emulsions were produced and tested in triplicate.
Among the 38 peptides tested, 14 peptides were not totally soluble resulting in cloudy aqueous phases (e.g. no transparent solutions were obtained and white peptides particles could be observed). […] Differences in pH are due to the acidic impurities present in the synthetic peptides used, and to the insufficient capacity of the buffer employed to keep pH constant at 7. Nonetheless, sodium acetate-imidazole buffer was preferred to phosphate buffer in order to avoid interferences of phosphate buffer in oxidative stability studies as consequence of its chelating activity.

[2] = Oxidative stability of emulsions by ESR (PBN-lipid spin adducts); conditions: 5 wt.% fish oil-in-water emulsions; for oxidative stability of emulsion (generation of PBN-lipid spin adducts, in words, Fig. 4): storage 6 days in the dark at both 20 and 37 °C; for oxidative stability of emulsion at 20 °C compared to α-10, α-12 and γ-1 (in words): storage at 20 °C
Protocol: Oxidative stability of emulsions prepared with selected peptides was studied by electron spin resonance (ESR)[31]. ESR analysis was carried out using a benchtop MINISCOPE MS 5000 ESR spectrometer (MAGNETTECH GMBH, Germany). The instrument settings were as follows: magnetic field 320–360 mT, sweep time 60 s, modulation 0.2 mT and frequency 100 kHz. Emulsions were produced as described in section 2.3.1.2 and PBN was added as an ethanol solution (concentration of 50 mg/mL) to have 30 mM of PBN in the oil phase of the emulsion. The oxidative stability of the emulsions was determined during 6 days storage at 20 or 37 °C and samples were measured at days 0, 1 (only for 37 °C), 2, 4 and 6. For each sampling point, emulsion samples (50 μL) were transferred to borosilicate capillary tubes before they were introduced to the cavity of the ESR. Analyses were performed in triplicate at room temperature.

[3] = Zeta potential of emulsions; type: physicochemical; conditions: 5 wt.% fish oil-in-water emulsion, 0.2 wt.% peptide; after one day of storage; 10 μL emulsion in 5 mL buffer; 25 °C; mean ± SD, triplicate
Protocol: as §1
The zeta potential of the emulsions was measured after one day of storage in a ZETASIZER NANO ZS (Malvern instruments Ltd., Worcestershire, UK) with a DTS1070 cell at 25 °C[31]. […] The zeta potential range was set to −100 to +50 mV and the samples were analyzed with 100 runs. […]

[4] = Qualitative observation of creaming of emulsions; type: physicochemical; set-up: key: 1: no creaming; 2: creaming; 3: oil layer above the emulsion; 4: phase separation
Protocol: as §1
(§2) The droplet size distribution of the emulsions was measured by laser diffraction in a MASTERSIZER 2000 (Malvern Instruments, Ltd., Worcestershire, UK) at days 0, 1, 3 and 6 during storage in dark at room temperature (~22 °C)[31]. Each emulsion was diluted in recirculating water (3000 rpm), until it reached an obscuration of 12%. The refractive indices of sunflower oil (1.469) and water (1.330) were used as particle and dispersant, respectively. Results are given in volume mean diameter (D4,3). Measurements were made in triplicate. Due to the low volume of emulsions produced, creaming was determined qualitatively by observing the appearance of the emulsions. Peptides forming emulsions with small droplet sizes and no creaming were selected for further study.

[5] = Droplet size of emulsions by laser diffraction; type: physicochemical; conditions: mean ± SD, triplicate
Protocol: as §1, §2

[6] = Iron (Fe2+) chelating activity; type: biochemical; conditions: 0.2 wt.% at pH 7; data not shown
Protocol: Peptides were dissolved in 10 mM sodium acetate - 10 mM imidazole buffer (pH 7) at 0.2 wt.%. 1 1,1-Diphenyl-2-picrylhydrazyl (DPPH) radical scavenging activity, iron (Fe^2+) chelating activity and ferric (Fe^3+) reducing power were measured as described elsewhere.

[7] = pH of peptide-stabilized emulsions; type: physicochemical; conditions: 5 wt.% fish oil-in-water emulsion stabilized with 0.2 wt.% peptide in 10 mM sodium acetate - 10 mM imidazole buffer (pH 7)
Protocol: as §1
Among the 38 peptides tested, 14 peptides were not totally soluble resulting in cloudy aqueous phases (e.g. no transparent solutions were obtained and white peptides particles could be observed). […]

| Molecule | Solubility of peptides [1] | further results |
| --- | --- | --- |
| VGVVIQNGKRR [γ-45] | Soluble |  |
| KKPVSKDSPETYEEALKRFAKLLSDRKKL [α-10] | Soluble | oxidative stability of emulsion (generation of PBN-lipid spin adducts, in words, Fig. 4) [2]: lowest oxidative stability |
| KDNPETYEEALKRFAKLLS [γ-41] | Soluble |  |
| NPNSSYRIISI [γ-43] | Soluble |  |
| GIIPATILEFLEGQLQEVDNN [γ-48] | Soluble |  |
| KYDGKYLMQVLQE [α-17] | Cloudy |  |
| GIKGIIPAIILEFLEGQLQEVDNNKDAR [γ-1] | Soluble | oxidative stability of emulsion (generation of PBN-lipid spin adducts, in words, Fig. 4) [2]: lowest oxidative stability |
| DDNFCAKVGVVIQ [β-30] | Cloudy |  |
| ELDSRLSYRIISTFWGALGGDVYL [β-21] | Cloudy |  |
| FCLKVGVVHQNGKRRLALVKDNP [γ-38] | Soluble | oxidative stability of emulsion at 20 °C compared to α-10, α-12 and γ-1 (in words) [2]: significantly more oxidatively stable |
| DNFCAKVGVVIQNGKRR [γ-44] | Cloudy |  |
| TPNENNRPFAAAKDIV [γ-47] | Soluble |  |
| FAKLLSDRKKLRANK [γ-46] | Soluble |  |
| Sodium caseinate | Soluble | Zeta potential (mV) [3]: −41.5 ± 1.1 mV; Observations Day 0 (creaming) ([4]; appearance of 5 wt.% fish oil-in-water emulsion, 0.2 wt.% peptide, day 0): 1; Observations Day 1 (creaming) ([4]; appearance of emulsion, day 1 of storage at ~22 °C): 1; Observations Day 6 (creaming) ([4]; appearance of emulsion, day 6 of storage at ~22 °C): 1; D4,3 (μm) Day 1 ([5]; as Day 0, day 1 of storage in dark at room temperature (~22 °C)): 1.1 ± 0.2 μm; D4,3 (μm) Day 3 ([5]; as Day 0, day 3 of storage in dark at room temperature (~22 °C)): 0.9 ± 0.2 μm; D4,3 (μm) Day 6 ([5]; as Day 0, day 6 of storage in dark at room temperature (~22 °C)): 1.0 ± 0.2 μm; D4,3 (μm) Day 0 ([5]; volume mean diameter, 5 wt.% fish oil-in-water emulsion, 0.2 wt.% peptide, pH 7 buffer, laser diffraction, day 0): 1.1 ± 0.2 μm; Fe2+ chelating activity [6]: 98.5 ± 0.2%; oxidative stability of emulsion (generation of PBN-lipid spin adducts, in words, Fig. 4) [2]: highest oxidative stability; pH of emulsion [7]: 6.9 |
| RDDNFCAKVGVVI [γ-35] | Cloudy |  |
| CC[C@H](C)[C@H](NC(=O)[C@@H](NC(=O)[C@@H](NC(=O)CNC(=O)[C@@H](NC(=O)[C@H](CCCCN)NC(=O)[C@H](C)NC(=O)[C@H](CS)NC(=O)[C@H](Cc1ccccc1)NC(=O)[C@H](CC(N)=O)NC(=O)[C@H](CC(=O)O)NC(=O)[C@H](CC(=O)O)NC(=O)[C@H](CCCNC(=N)N)NC(=O)[C@@H](N)CS)C(C)C)C(C)C)C(C)C)C(=O)O [γ-34] (H-CRDDNFCAKVGVVI-OH) | Cloudy |  |
| NRPFAAAKDIVPFYFEHGPHIFN [α-13] | Soluble |  |
| LLTAMITTPNENNRP [γ-37] | Soluble |  |
| LNIQFNIPTPKLC [β-27] | Cloudy | oxidative stability of emulsion (generation of PBN-lipid spin adducts, in words, Fig. 4) [2]: highest oxidative stability |
| SSDDQFCLKVGVV [γ-40] | Cloudy | oxidative stability of emulsion (generation of PBN-lipid spin adducts, in words, Fig. 4) [2]: highest oxidative stability |

| Molecule | Solubility of peptides [1] | further results |
| --- | --- | --- |
| EALKRFAKLLSD [α-11] | Soluble |  |
| FIPLSTNIFEDQLLNIQFNIPT [β-23] | Cloudy |  |
| CC(C)C[C@H](NC(=O)[C@H](CS)NC(=O)[C@H](Cc1ccccc1)NC(=O)[C@H](CCC(N)=O)NC(=O)[C@H](CC(=O)O)NC(=O)[C@H](CC(=O)O)NC(=O)[C@H](CO)NC(=O)[C@H](CO)NC(=O)[C@H](Cc1ccccc1)NC(=O)[C@@H]1CCCN1C(=O)[C@@H](N)CS)C(=O)N[C@@H](CCCCN)C(=O)N[C@H](C(=O)NCC(=O)N[C@H](C(=O)O)C(C)C)C(C)C [β-22] (H-CPFSSDDQFCLKVGV-OH) | Soluble | oxidative stability of emulsion at 20 °C compared to α-10, α-12 and γ-1 (in words) [2]: significantly more oxidatively stable |
| HQNGKRRLALV [γ-39] | Soluble |  |
| DSPETYEEALKRFAKLLSD [α-12] | Soluble | oxidative stability of emulsion (generation of PBN-lipid spin adducts, in words, Fig. 4) [2]: lowest oxidative stability |
| KYLMQVLQEKLGE [α-18] | Cloudy |  |
| LNIQFNI [β-24] | Cloudy |  |
| VHQNGKRRLALVKDNPLDVSFK [β-28] | Soluble |  |
| LGGDVYLGKSPNSDAPCP [β-31] | Soluble |  |
| ILEFLEGQLQEVDN [α-16] | Soluble |  |
| FCLKVGVIHQNGKRRLALVK [γ-49] | Soluble | oxidative stability of emulsion (generation of PBN-lipid spin adducts, in words, Fig. 4) [2]: highest oxidative stability |
| KYLMQVLQEKL [α-19] | Soluble |  |
| IPATILEFLEGQLQEVDNN [α-15] | Soluble |  |
| ELDSRLSYRIISTFWGALGGDVYLGKSPN [β-20] | Cloudy |  |
| GKELDPRLSYRI [β-26] | Soluble |  |
| FDVIGGTSTGGLLTAMITTPNENNRP [γ-36] | Soluble | oxidative stability of emulsion (generation of PBN-lipid spin adducts, in words, Fig. 4) [2]: highest oxidative stability |
| DTNGKELNPNSSYRIISIGRGALGGDVYL [γ-42] | Cloudy |  |
| AKDIVPFYFEHGPHIFN [α-14] | Soluble |  |
| IGSSSHFGPHIFEGELLNIQFDIS [β-29] | Cloudy |  |
